Values quoted from earlier work, collected in patent US11484510B2, “Method to treat vitiligo” (APIRX PHAR[…], LLC, priority 2017, dated 2022).

Legend:
CB1 receptor = CB1 receptor (Homo sapiens, UniProt P21554)
Sequence of CB1 receptor (P21554 whole entry): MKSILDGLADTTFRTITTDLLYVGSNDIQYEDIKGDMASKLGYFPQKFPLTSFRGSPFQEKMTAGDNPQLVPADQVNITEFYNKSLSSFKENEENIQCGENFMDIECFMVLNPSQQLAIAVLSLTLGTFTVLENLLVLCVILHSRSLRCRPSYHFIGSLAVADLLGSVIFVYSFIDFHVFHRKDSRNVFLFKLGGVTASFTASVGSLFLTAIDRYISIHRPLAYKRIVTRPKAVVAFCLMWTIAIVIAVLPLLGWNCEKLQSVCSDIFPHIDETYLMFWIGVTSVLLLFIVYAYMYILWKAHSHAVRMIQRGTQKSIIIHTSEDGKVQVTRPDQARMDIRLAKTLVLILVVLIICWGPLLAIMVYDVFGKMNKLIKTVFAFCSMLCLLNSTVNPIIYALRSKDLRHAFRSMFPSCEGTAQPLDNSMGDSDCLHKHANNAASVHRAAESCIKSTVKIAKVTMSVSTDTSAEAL

CCCCCc1cc(O)c(C/C=C(\C)CCC=C(C)C)c(O)c1 [CBG, 2-[(2E)-3,7-dimethylocta-2,6-dienyl]-5-pentyl-benzene-1,3-diol]
Affinity, 5-HT1A receptor antagonist (5-HT1A receptor): moderate affinity
Affinity, α2-adrenergic receptor agonist (α2-adrenergic receptor): high affinity
Affinity, CB1 receptor antagonist (CB1 receptor): low affinity
